Experimental data as given in ChEMBL document CHEMBL1147126, “Habbemines A and B, pyrrolidine alkaloids with human delta-opioid receptor binding affinity from the leaves of Elaeocarpus habbemensis” (J Nat Prod, 2007).

Target: Delta-type opioid receptor (Homo sapiens, UniProt P41143)
Assay: Displacement of [125I]deltorphin 2 from human recombinant delta opioid receptor expressed in HEK cell membrane
Format: cell membranes, HEK293

Sequence of Delta-type opioid receptor (P41143 whole entry): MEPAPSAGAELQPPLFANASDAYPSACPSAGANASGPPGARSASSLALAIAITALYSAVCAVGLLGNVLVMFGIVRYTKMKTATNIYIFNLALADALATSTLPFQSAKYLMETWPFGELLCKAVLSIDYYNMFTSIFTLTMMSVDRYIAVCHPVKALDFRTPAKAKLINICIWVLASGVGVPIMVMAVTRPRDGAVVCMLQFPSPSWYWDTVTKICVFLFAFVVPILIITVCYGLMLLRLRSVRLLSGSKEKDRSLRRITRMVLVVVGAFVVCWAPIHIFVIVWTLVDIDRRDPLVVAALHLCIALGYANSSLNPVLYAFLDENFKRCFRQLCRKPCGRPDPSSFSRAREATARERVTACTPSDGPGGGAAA

| IC50 [µM] | Compound |
| --- | --- |
| 32.1 | C[C@H]1CC=CC(=O)[C@@H]1C(=O)C[C@@H]1CCCN1CCCO [HABBEMINES A] |
| 32.1 | C[C@H]1CC=CC(=O)[C@@H]1C(=O)C[C@H]1CCCN1CCCO [HABBEMINES B] |
